Literature values, collected in patent publication US7169982B2, “Starch” (Basf Plant Science GmbH, priority 2001, dated 2007).
Like-named read-outs stand apart in the source and are kept apart here.

Legend:
[1] = tested on: maize starch synthase SSIIa, wild-type, SEQ ID NO:8; conditions: for Km: read-out: Km for ADPG
[2] = tested on: maize starch synthase SSIIb-2 (SEQ ID NO:7) mutant D139E; conditions: read-out: Km (ADPGlc)
[3] = tested on: maize starch synthase SSIIa (SEQ ID NO:8) mutant K193Q; conditions: for Km: read-out: Km for ADPG
[4] = tested on: maize starch synthase SSIIa (SEQ ID NO:8) mutant K497Q; conditions: for Km: read-out: Km for ADPG
[5] = tested on: maize starch synthase SSIIb-2 (N-terminally truncated form of mSSIIb produced in E. coli), non-mutant, SEQ ID NO:7; conditions: read-out: Km (ADPGlc)
[6] = tested on: maize starch synthase SSIIb-2 (SEQ ID NO:7) mutant D21E; conditions: amylopectin as primer, 5 mg/ml; read-out: Km (ADPGlc)
[7] = tested on: maize starch synthase SSIIb-2 (SEQ ID NO:7) mutant E391D; conditions: read-out: Km (ADPGlc)
[8] = tested on: maize starch synthase SSIIb-2 (SEQ ID NO:7) mutant D21N; conditions: read-out: Km (ADPGlc)
[9] = tested on: maize starch synthase SSIIa (SEQ ID NO:8) mutant K193E; conditions: for Km: read-out: Km for ADPG
[10] = tested on: maize starch synthase SSIIa (SEQ ID NO:8) mutant K193R; conditions: for Km: read-out: Km for ADPG

## Nc1ncnc2c1ncn2[C@@H]1O[C@H](COP(=O)(O)OP(=O)(O)O[C@H]2O[C@H](CO)[C@@H](O)[C@H](O)[C@H]2O)[C@@H](O)[C@H]1O [ADPGlc, ADP-glucose]
[1]; amylopectin as primer
  Vmax: 49.9 ± 4.06 μmol/min/mg protein
  Km: 110 ± 10 µM
[1]; glycogen as primer
  Vmax: 34.47 ± 1.70 μmol/min/mg protein
  Km: 120 ± 10 µM
[2]; amylopectin as primer, 5 mg/ml
  Km: 90 ± 30 µM
[2]; glycogen as primer, 20 mg/ml
  Km: 70 ± 20 µM
[3]; amylopectin as primer
  Vmax: 17.4 ± 1.58 μmol/min/mg protein
  Km: 130 ± 10 µM
[3]; glycogen as primer
  Vmax: 6.20 ± 0.01 μmol/min/mg protein
  Km: 100 ± 10 µM
[4]; amylopectin as primer
  Vmax: 13.5 ± 0.21 μmol/min/mg protein
  Km: 5620 ± 230 µM
[4]; glycogen as primer
  Vmax: 23.8 ± 2.5 μmol/min/mg protein
  Km: 6910 ± 330 µM
[5]; amylopectin as primer, 5 mg/ml
  Km: 160 ± 30 µM
[5]; glycogen as primer, 20 mg/ml
  Km: 130 ± 20 µM
[6]
  Km: 130 ± 30 µM
[7]; amylopectin as primer, 5 mg/ml
  Km: 1370 ± 140 µM
[7]; glycogen as primer, 20 mg/ml
  Km: 1180 ± 140 µM
[8]; amylopectin as primer, 5 mg/ml
  Km: 1580 ± 110 µM
[8]; glycogen as primer, 20 mg/ml
  Km: 1480 ± 30 µM
[9]; amylopectin as primer
  Vmax: 10.53 ± 0.5 μmol/min/mg protein
  Km: 220 ± 10 µM
[9]; glycogen as primer
  Vmax: 25.45 ± 0.08 μmol/min/mg protein
  Km: 170 ± 20 µM
[10]; amylopectin as primer
  Vmax: 18.2 ± 0.91 μmol/min/mg protein
  Km: 150 ± 10 µM
[10]; glycogen as primer
  Vmax: 42.27 ± 3.01 μmol/min/mg protein
  Km: 150 ± 20 µM
